Laboratory results taken from ChEMBL document CHEMBL3817846, “Isomeric iodinated analogs of nimesulide: Synthesis, physicochemical characterization, cyclooxygenase-2 inhibitory activity, and transport across Caco-2 cells” (Bioorg Med Chem, 2016).

Key:
[1] = Acid dissociation constant, pKa of compound at 20 ug/ml at pH 5.6 to 6.8 by micro-scale spectrophotometric method; assay type: physicochemical
[2] = Stability in Balb/cCrSlc mouse plasma assessed as parent compound remaining up to 120 mins by HPLC analysis; assay type: ADME, cell-free; conditions: read-out: Stability
[3] = molecular target: T1, Prostaglandin G/H synthase 2 (Ovis aries, UniProt P79208); assay: Inhibition of heme catalyzed hydroperoxidase activity of ovine COX-2 using arachidonic acid as substrate preincubated for 5 mins followed by substrate addition measured after 5 mins by TMPD oxidation based colorimetric assay
T1 sequence (P79208 whole entry): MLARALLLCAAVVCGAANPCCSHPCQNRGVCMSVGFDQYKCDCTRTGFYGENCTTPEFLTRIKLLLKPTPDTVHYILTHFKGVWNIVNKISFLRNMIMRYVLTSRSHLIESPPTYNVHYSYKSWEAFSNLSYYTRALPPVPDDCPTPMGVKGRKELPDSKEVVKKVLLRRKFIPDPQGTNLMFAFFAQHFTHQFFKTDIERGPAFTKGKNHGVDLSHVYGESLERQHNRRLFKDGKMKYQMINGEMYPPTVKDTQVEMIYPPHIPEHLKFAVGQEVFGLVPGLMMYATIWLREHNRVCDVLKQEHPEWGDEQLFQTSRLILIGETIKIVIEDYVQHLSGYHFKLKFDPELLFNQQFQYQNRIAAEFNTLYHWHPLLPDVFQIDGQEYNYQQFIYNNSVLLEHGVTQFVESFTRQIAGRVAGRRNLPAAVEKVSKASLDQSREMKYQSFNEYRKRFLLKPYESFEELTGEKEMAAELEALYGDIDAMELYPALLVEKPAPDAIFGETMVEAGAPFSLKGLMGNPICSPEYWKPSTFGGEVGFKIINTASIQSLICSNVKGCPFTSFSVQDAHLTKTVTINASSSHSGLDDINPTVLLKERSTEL

[4] = Apparent permeability from apical to basolateral side in human Caco2 cells at 1 uM after 1 to 2 hrs by LC-MS analysis; assay type: ADME, cell-based; conditions: Caco-2
[5] = Apparent permeability from apical to basolateral side in human Caco2 cells at 10 uM after 1 to 2 hrs by LC-MS analysis; assay type: ADME, cell-based; conditions: Caco-2
[6] = Efflux ratio of permeability from basolateral to apical side over apical to basolateral side in human Caco2 cells at 1 uM after 1 to 2 hrs by LC-MS analysis; assay type: ADME, cell-based; conditions: Caco-2
[7] = molecular target: T2, Prostaglandin G/H synthase 1 (Ovis aries, UniProt P05979); assay: Inhibition of heme catalyzed hydroperoxidase activity of ovine COX-1 using arachidonic acid as substrate preincubated for 5 mins followed by substrate addition measured after 5 mins by TMPD oxidation based colorimetric assay
T2 sequence (P05979 whole entry): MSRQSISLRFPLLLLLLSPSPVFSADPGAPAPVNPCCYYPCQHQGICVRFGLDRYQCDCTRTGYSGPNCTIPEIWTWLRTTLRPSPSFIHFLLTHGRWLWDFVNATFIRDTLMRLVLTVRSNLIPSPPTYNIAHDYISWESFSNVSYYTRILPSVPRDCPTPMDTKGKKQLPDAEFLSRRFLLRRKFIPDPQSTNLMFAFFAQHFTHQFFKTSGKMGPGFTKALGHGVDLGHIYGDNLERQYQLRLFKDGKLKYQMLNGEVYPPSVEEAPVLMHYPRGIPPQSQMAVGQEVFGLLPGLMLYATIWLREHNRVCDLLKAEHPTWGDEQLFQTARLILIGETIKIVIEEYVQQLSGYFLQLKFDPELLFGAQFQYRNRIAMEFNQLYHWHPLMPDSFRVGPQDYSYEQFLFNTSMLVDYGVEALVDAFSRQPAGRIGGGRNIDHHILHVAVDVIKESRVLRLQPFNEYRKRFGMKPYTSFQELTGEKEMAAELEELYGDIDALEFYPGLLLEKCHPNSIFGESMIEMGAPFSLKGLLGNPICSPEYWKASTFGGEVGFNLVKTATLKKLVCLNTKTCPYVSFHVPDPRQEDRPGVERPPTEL

[8] = Apparent permeability from basolateral to apical side in human Caco2 cells at 1 uM after 1 to 2 hrs by LC-MS analysis; assay type: ADME, cell-based; conditions: Caco-2
[9] = Apparent permeability from basolateral to apical side in human Caco2 cells at 10 uM after 1 to 2 hrs by LC-MS analysis; assay type: ADME, cell-based; conditions: Caco-2
[10] = Octanol-water partition coefficient, log P of compound at pH 7.4 by reverse phase HPLC analysis; assay type: physicochemical
[11] = Efflux ratio of permeability from basolateral to apical side over apical to basolateral side in human Caco2 cells at 10 uM after 1 to 2 hrs by LC-MS analysis; assay type: ADME, cell-based; conditions: Caco-2

Compound | pKa [1] | remaining at 2 h [2] [%] | IC50 [3] [µM] | Papp A→B at 1 µM [4] [×10⁻⁶ cm/s] | Papp A→B at 10 µM [5] [×10⁻⁶ cm/s] | efflux ratio at 1 µM [6] | IC50 [7] [µM] | Papp B→A at 1 µM [8] [×10⁻⁶ cm/s] | Papp B→A at 10 µM [9] [×10⁻⁶ cm/s] | logP [10] | efflux ratio at 10 µM [11]
COc1ccccc1Oc1cc([N+](=O)[O-])ccc1NS(C)(=O)=O | 7.07 | 97.6 |  |  |  |  |  |  |  |  | 
COc1cccc(Oc2cc([N+](=O)[O-])ccc2NS(C)(=O)=O)c1 | 6.87 | 99.3 |  |  |  |  |  |  |  |  | 
COc1ccc(Oc2cc([N+](=O)[O-])ccc2NS(C)(=O)=O)cc1 | 7.01 | 98.5 |  |  |  |  |  |  |  |  | 
CS(=O)(=O)Nc1ccc([N+](=O)[O-])cc1Oc1ccccc1I | 6.57 | 95 | > 100 | 30.1 | 33.8 | 0.72 | > 100 | 21.9 | 26.4 | 2.11 | 0.78
CS(=O)(=O)Nc1ccc([N+](=O)[O-])cc1Oc1ccc(I)cc1 | 6.89 | 97.5 | 0.47 | 40.5 | 17.1 | 0.45 | > 100 | 18.3 | 13.4 | 2.77 | 0.78
CS(=O)(=O)Nc1ccc([N+](=O)[O-])cc1Oc1cccc(I)c1 | 6.74 | 98.4 | > 100 | 31.4 | 27 | 0.84 | > 100 | 26.4 | 18 | 2.72 | 0.67
CS(=O)(=O)Nc1ccc([N+](=O)[O-])cc1Oc1ccccc1 [NIMESULIDE] | 6.57 | 98 |  |  |  |  |  |  |  |  | 
